The record followed here is patent US20160303184A1, “VANCOMYCIN-SUGAR CONJUGATES AND USES THEREOF” (JAWAHARLAL NEHRU CENTRE FOR ADVANCED SCIENTIFIC RESEARCH …, priority 2013, published 2016).

Converted amounts (≈) assume the structure as drawn. Read-outs that look alike come from different tables or passages of the source.

For data set [1], the system named is MR-VISA. In words: Pharmacodynamics against MR-VISA thigh infection, single dose. The format is in vivo, Staphylococcus aureus. The conditions noted are these: single i.v. dose; for ED50: 50% maximal bacterial killing; for EDstasis: 24-h colony count similar to pretreatment count. As to the method: Data are expressed as means±SD (error bars). A separate single-dose study of compound 7 was performed in neutropenic mice inoculated in the thigh with 50 μL of MR-VISA (10^7 CFU/ml). Infected animals were treated intravenously, at 1 h post infection, with 2 mg/kg, 4 mg/kg, 8 mg/kg and 12 mg/kg. At 24 h post inoculation mice were sacrificed and the thigh tissues were harvested for determination of bacterial titer as mentioned above.

For data set [2], the system named is Methicillin-sensitive S. aureus (MTCC 737). In words: MIC, micro-dilution broth, MSSA. The format is cell-based. The conditions noted are these: Staphylococcus aureus, read-out: MIC MSSA. The method, then:
(§1) All test compounds were assayed in a micro-dilution broth format. Stock solutions were made by serially diluting the compounds using autoclaved millipore water or broth media. The antibacterial activity of the compounds was determined against methicillin-sensitive S. aureus (MSSA), methicillin-resistant S. aureus (MRSA), vancomycin-intermediate-resistant S. aureus (VISA), vancomycin-sensitive E. faecium (VSE) and vancomycin-resistant E. faecium (VRE). Bacteria, to be tested, were grown for about 10 h in the suitable media, MSSA, MRSA and VISA were grown in yeast-dextrose broth (about 1 g of beef extract, about 2 g of yeast extract, about 5 g of peptone and about 5 g of NaCl in about 1000 mL of sterile distilled water (pH-7)). For solid media, about 5% agar was used along with above mentioned composition. VSE and VRE were cultured in brain heart infusion broth (Himedia). The bacterial samples were freeze dried and stored at −80° C. About 5 μL of these stocks were added to about 3 mL of the nutrient broth and the culture was grown for about 6 h at about 37° C. prior to the experiments. This 6 h grown culture gives about 10^9 cfu/mL and this was determined by spread plating method. The 6 h grown culture was diluted to give effective cell concentration of about 10^5 cfu/mL which was then used for determining MIC. Compounds were serially diluted, in sterile water (2 fold dilution is employed) in a way that the working concentration was about 10 μM for MSSA, MRSA, and VSE while for VRE and VISA it was about 100 μM. About 50 μL of these serial dilutions were added to the wells of 96 well plate followed by the addition of about 150 μL of bacterial solution. The plates were then incubated at about 37° C., 150 rpm in the incubator and O.D at 600 nm was recorded at an interval of about 10 h and 24 h using TECAN (Infinite series, M200 pro) Plate Reader. Each concentration had triplicate values and the whole experiment was done at least twice and the MIC value was determined by taking the average of triplicate. O. D. values for each concentration and plotting it against concentration. The data was then subjected to sigmoidal fitting. From the curve the MIC value was determined, as the point in the curve where the O. D. was similar to that of control having no bacteria.

Data set [3] concerns MR-VISA. The data set is described as follows: In-vivo antibacterial activity, neutropenic mouse thigh infection. Also noted: species or system Staphylococcus aureus. The conditions noted are these: 12 mg/kg i.v., neutropenic mice, 24 h. As to the method: About six-week-old, female CD-1 mice (weight, ˜19-24 g) were used for the experiments. The mice were rendered neutropenic (˜100 […]) by injecting two doses of cyclophosphamide intraperitoneally 4 days (150 mg/kg) and 1 day (100 mg/kg) before the infection experiment. 50 μl of ˜10^7 CFU/ml concentration of the bacterial inoculum (MR-VISA) was injected into the thigh. One hour after inoculation, animals were treated intravenously with saline, vancomycin, linezolid and compound 7 at 12 mg/kg and 24 mg/kg of body weight (24 h total dosage). At 24 h post first treatment, cohorts of animals were euthanized (using ether) and the thighs were collected aseptically. The thigh was weighed (0.7 g-0.9 g) and placed into 10 ml of sterile saline and homogenized. The dilutions of the homogenate were plated onto agar plates, which were incubated overnight at 37° C. The bacterial titer was expressed as log10 CFU/g of thigh weight.

Data set [4] relates to Vancomycin-sensitive E. faecium (ATCC 19634). In words: MIC, micro-dilution broth, VSE. In kind it is cell-based. As to conditions: Enterococcus faecium, ATCC19634, read-out: MIC VSE. As to the method: as §1
Data set [5] relates to methicillin-resistant S. epidermidis clinical isolate. The data set is described as follows: MIC, clinical isolate of methicillin-resistant S. epidermidis. As to conditions: Staphylococcus epidermidis, read-out: MIC S. epidermidis. The format is cell-based.
The test system of data set [6] is methicillin-resistant S. aureus clinical isolate. In words: MIC, clinical isolate of methicillin-resistant S. aureus. In kind it is cell-based. The conditions noted are these: Staphylococcus aureus, read-out: MIC S. aureus. As to the method: as §1
Data set [7] is described as follows: Single dose pharmacokinetics. In kind it is in vivo, CD-1 female mice. Also noted: clearance: unit not given here. As to conditions: 12 mg/kg single i.v., mice, plasma. As to the method: A single dose pharmacokinetic analysis of compound 7 was performed in CD-1 female mice. Mice were administered a single intravenous dose of 12 mg/kg. Blood samples were collected from mice by retro-orbital aspiration and placed into heparinized tubes at different time intervals after dosing. The plasma was separated by centrifugation, and drug plasma concentrations were measured by microbiologic assay with Bacillus subtilis as the test organism. The lower limit of detection of the assay was 0.6 μg/ml. Pharmacokinetic parameters, including half-life, AUC and Cmax were calculated by using non-compartmental model.

Data set [8] concerns Methicillin-resistant S. aureus (ATCC 33591). The data set is described as follows: MIC, micro-dilution broth, MRSA. The format is cell-based. As to conditions: Staphylococcus aureus, read-out: MIC MRSA. As to the method: as §1
For another data set, the system named is VISA. The data set is described as follows: Ex-vivo whole blood assay. In kind it is cell-based, S. aureus. As to conditions: 3 h incubation in 90% human whole blood. As to the method:
Ex-vivo whole blood assay was performed to compare the abilities of these compounds to retain activity in complex media. To 30 μL of VISA in saline (0.9% NaCl; 10^6 CFU/mL) 10 μL of test compounds (vancomycin and compound 7) and 270 μL of fresh human whole blood were added and incubated, at 37° C. for about 3 h. After the incubation period, antibacterial activity was determined by finding the bacterial titer in the infected blood.

Data set [9] concerns methicillin-resistant S. haemolyticus clinical isolate. The data set is described as follows: MIC, clinical isolate of methicillin-resistant S. haemolyticus. In kind it is cell-based. The conditions noted are these: Staphylococcus haemolyticus, read-out: MIC S. haemolyticus.

On to `CCCCCCCCCCN[C@]1(C)C[C@H](OC2C(O)[C@@H](O)C(CO)O[C@@H]2Oc2c3cc4cc2Oc2ccc(cc2Cl)[C@@H](O)[C@@H](NC(=O)[C@@H](CC(C)C)NC)C(=O)N[C@@H](CC(N)=O)C(=O)N[C@H]4C(=O)N[C@H]2C(=O)N[C@H](C(=O)N[C@H](C(=O)NCCCNC(=O)[C@H](O)[C@@H](O)[C@H](OC4OC(CO)C(O)C(O)[C@H]4O)[C@H](O)CO)c4cc(O)cc(O)c4-c4cc2ccc4O)[C@H](O)c2ccc(c(Cl)c2)O3)OC(C)[C@@H]1O` (stereo partly shown) [Compound 7], for which the ED50 in the data set on MR-VISA [1] (Staphylococcus aureus, VISA, in Mus musculus, iv, 24 h, neutropenic mice thigh, 24 h, read-out: ED50) was 1.05 mg/kg; in the data set with MR-VISA [1] (neutropenic mice thigh, 24 h), 1.0 mg/kg. In the data set on MR-VISA [1] (neutropenic mice thigh, 24 h), this compound showed an ED1-log kill of 3.7 mg/kg. Further, in the data set with MR-VISA [1] (neutropenic mice thigh, 24 h), the ED2-log kill came to 8.8 mg/kg. Further, the ED2.6-log kill in the data set on MR-VISA [1] (neutropenic mice thigh, 24 h) worked out at 12 mg/kg. The EDstasis stood at 2.2 mg/kg with MR-VISA [1] and 2.22 mg/kg in the data set on MR-VISA [1] (listed as compound 7). The MIC in data set [2] is 0.2 µM (≈ 0.397 µg/mL); in data set [4], 0.15 µM (≈ 0.298 µg/mL); in data set [5] it was 0.3 µM (≈ 0.596 µg/mL); in data set [6], 0.3 µM (≈ 0.596 µg/mL); in data set [8], 0.3 µM (≈ 0.596 µg/mL); in data set [9], 0.41 µM (≈ 0.814 µg/mL). Also, the “reduction in bacterial count from the initial titer” value in the data set on MR-VISA [3] is roughly 3.0 log10 CFU/g. The Cmax in data set [7] is 703 µg/mL; in data set [7] (female, CD-1, mouse, iv, 12 mg/kg, read-out: Cmax), 703 µg/mL. Also, the Cmin in data set [7] came out at 1.7 µg/mL. In data set [7] (female, CD-1, mouse, iv), this compound had a half-life of 2.76 h. Further, the AUC(0-t) in data set [7] (female, CD-1, mouse, iv, read-out: AUC0-24 h) was 562 µg·h/mL. The clearance in data set [7] (female, CD-1, mouse, iv) is 4.17. Besides, the AUC in [7] (female, CD-1, mouse, iv, 0.083 h to 24 h) came out at 562 µg·h/mL. Further, the “bactericidal activity in whole blood” value in the data set with VISA is reported as “rapid bactericidal activity”.
